Data taken from BindingDB's records for doi:10.1016/s0960-894x(98)00106-1 (Oregon State University, 1999).

Experiment: Compound was evaluated for the inhibition of L-pipecolate oxidase(LPO) isolated from frozen Rhesus monkey liver

For `O=C(O)[C@H]1NC[C@@H]2O[C@@H]21` [(1R,2S,5S)-6-Oxa-3-aza-bicyclo[3.1.0]hexane-2-carboxylic acid], the IC50 was 200 µM.
